Laboratory results as given in ChEMBL document CHEMBL1142204, “Cathepsin A is the major hydrolase catalyzing the intracellular hydrolysis of the antiretroviral nucleotide phosphonoamidate prodrugs GS-7340 and GS-9131” (Antimicrob Agents Chemother, 2007).
pIC50: −log10 of the molar value.

Tests used:
[1] = biological target: T1, Liver carboxylesterase (Sus scrofa, UniProt Q29550); test: Inhibition of porcine liver carboxylesterase using [14C]GS-7340 substrate
T1 sequence (Q29550 whole entry): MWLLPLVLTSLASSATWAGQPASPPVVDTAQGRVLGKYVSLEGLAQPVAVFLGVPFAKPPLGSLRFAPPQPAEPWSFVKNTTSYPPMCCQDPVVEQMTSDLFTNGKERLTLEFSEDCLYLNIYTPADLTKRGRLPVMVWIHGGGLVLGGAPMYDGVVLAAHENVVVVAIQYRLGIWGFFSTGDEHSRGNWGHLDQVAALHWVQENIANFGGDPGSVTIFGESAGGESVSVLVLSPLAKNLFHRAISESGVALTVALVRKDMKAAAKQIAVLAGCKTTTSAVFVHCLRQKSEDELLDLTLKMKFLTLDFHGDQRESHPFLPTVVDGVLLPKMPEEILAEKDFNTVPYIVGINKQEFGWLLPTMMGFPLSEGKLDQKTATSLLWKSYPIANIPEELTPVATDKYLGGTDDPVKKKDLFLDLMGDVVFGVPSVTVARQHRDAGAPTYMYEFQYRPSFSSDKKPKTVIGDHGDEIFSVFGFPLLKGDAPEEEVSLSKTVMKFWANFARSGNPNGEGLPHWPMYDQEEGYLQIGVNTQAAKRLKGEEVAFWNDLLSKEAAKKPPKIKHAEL

[2] = Inhibition of purified prodrug hydrolase using [14C]GS-7340 substrate; set-up: species or system Homo sapiens
[3] = Inhibition of crude human PBMC extract prodrug hydrolase using [14C]GS-7340 substrate
[4] = biological target: T2, Lysosomal protective protein (Homo sapiens, UniProt P10619); test: Inhibition of recombinant CatA using [14C]GS-7340 substrate
T2 sequence (P10619 whole entry): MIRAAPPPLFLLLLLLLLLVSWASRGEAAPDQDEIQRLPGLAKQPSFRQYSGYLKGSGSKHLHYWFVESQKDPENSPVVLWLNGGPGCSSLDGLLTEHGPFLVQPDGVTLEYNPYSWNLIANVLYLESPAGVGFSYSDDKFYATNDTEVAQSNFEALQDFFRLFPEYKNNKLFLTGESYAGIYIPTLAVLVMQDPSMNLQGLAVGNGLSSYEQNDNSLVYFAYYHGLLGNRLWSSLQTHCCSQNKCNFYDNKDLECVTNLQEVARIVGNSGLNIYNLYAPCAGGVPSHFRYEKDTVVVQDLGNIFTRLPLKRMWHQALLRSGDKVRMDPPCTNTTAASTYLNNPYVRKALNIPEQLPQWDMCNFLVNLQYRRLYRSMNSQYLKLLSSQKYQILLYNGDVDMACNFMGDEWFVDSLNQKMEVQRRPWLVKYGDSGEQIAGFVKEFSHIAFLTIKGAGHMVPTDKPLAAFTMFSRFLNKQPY

[5] = biological target: T3, Neutrophil elastase (Homo sapiens, UniProt P08246); test: Inhibition of human leukocyte elastase using [14C]GS7340 substrate
T3 sequence (P08246 whole entry): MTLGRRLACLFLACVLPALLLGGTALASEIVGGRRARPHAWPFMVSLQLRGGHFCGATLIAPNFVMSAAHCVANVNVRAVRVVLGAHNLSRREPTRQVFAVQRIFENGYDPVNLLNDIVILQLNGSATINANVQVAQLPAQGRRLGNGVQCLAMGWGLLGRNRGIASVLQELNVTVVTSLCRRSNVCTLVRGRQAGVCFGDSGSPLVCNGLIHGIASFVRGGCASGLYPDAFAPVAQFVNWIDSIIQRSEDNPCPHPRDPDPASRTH

SMILES | pIC50 [1] | pIC50 [2] | pIC50 [3] | pIC50 [4] | pIC50 [5]
O=c1oc(Cl)c(Cl)c2ccccc12 | < 3.60 | 6.30 | 5.30 | 6.22 | –
CC(C)C[C@H](NC(=O)[C@H]1O[C@@H]1C(=O)O)C(=O)NCCCCN=C(N)N [E-64] | < 3.52 | < 3.52 | < 3.52 | < 3.52 | < 3.52
